# From ChEMBL document CHEMBL5038615, “Discovery of a cinnamyl piperidine derivative as new neddylation inhibitor for gastric cancer treatment” (Eur J Med Chem, 2021)
# pIC50: −log10 of the molar value. Active and inactive are the calls of the source. The calls are words filed in the database; no cut-off is given here.
# Experiments:
# HGC-27 [1] = experiment: Induction of apoptosis in human HGC-27 cells assessed as downregulation of Bcl-2 at 3 to 9 uM measured after 24 hrs by Western blot assay; assay type: functional, cell-based; details: dose 3-9 µM
# HGC-27 [2] = experiment: Induction of apoptosis in human HGC-27 cells assessed as viable cells at 6 uM measured after 48 hrs by AnnexinV/FITC staining based flow cytometry method (reference value: 93.18%); assay type: functional; details: read-out: Activity
# MGC-803 [3] = experiment: Antiproliferative activity against human MGC-803 cells assessed as cell survival at 7.5 uM pre-incubated with Z-VAD-FMK followed by compound addition and measured after 24 hrs by MTT assay; assay type: functional, cell-based
# HGC-27 [4] = experiment: Induction of apoptosis in human HGC-27 cells assessed as early apoptotic cells at 6 uM measured after 48 hrs by AnnexinV/FITC staining based flow cytometry method (reference value: 5.8%); assay type: functional
# MGC-803 [5] = experiment: Induction of apoptosis in human MGC-803 cells assessed as up-regulation of Nrf2 expression at 2.5 to 7.5 uM measured after 24 hrs by Western blot assay; assay type: functional, cell-based; details: dose 2.5-7.5 µM
# MGC-803 [6] = experiment: Induction of apoptosis in human MGC-803 cells assessed as upregulation of Bax at 2.5 to 7.5 uM measured after 24 hrs by Western blot assay; assay type: functional, cell-based; details: dose 2.5-7.5 µM
# [7] = target: T1, NEDD8-activating enzyme E1 regulatory subunit (Homo sapiens) (UniProt Q13564); experiment: Inhibition of NAE-mediated neddylation in human MGC-803 cells assessed as cullin2-Nedd8 adduct formation at 2.5 to 7.5 uM measured after 24 hrs by western blot assay; assay type: cell-based; details: dose 2.5-7.5 µM
# T1 sequence (whole entry): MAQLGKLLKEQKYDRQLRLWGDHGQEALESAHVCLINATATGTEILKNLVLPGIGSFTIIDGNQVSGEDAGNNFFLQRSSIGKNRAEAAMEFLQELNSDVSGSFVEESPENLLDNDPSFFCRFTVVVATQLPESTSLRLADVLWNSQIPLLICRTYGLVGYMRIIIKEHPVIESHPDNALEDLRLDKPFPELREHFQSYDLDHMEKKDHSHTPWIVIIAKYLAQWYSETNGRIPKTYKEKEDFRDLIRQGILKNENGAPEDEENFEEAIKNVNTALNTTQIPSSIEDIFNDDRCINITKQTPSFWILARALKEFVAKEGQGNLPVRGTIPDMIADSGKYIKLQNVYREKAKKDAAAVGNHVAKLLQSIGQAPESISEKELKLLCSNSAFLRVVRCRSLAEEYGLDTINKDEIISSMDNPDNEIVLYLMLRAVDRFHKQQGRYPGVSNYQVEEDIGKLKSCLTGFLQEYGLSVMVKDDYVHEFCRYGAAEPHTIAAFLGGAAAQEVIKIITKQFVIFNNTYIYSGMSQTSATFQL
# [8] = target: T1, NEDD8-activating enzyme E1 regulatory subunit (Homo sapiens); experiment: Inhibition of NAE-mediated neddylation in human MGC-803 cells assessed as cullin4B-Nedd8 adduct formation at 2.5 to 7.5 uM measured after 24 hrs by western blot assay; assay type: cell-based; details: dose 2.5-7.5 µM
# HGC-27 [9] = experiment: Induction of apoptosis in human HGC-27 cells assessed as ROS levels at 3 uM measured after 24 hrs by DCFH-DA staining based flow cytometry assay (reference value: 6.8%); assay type: functional
# HGC-27 [10] = experiment: Antiproliferative activity against human HGC-27 cells assessed as inhibition of cell proliferation measured after 72 hrs by MTT assay; assay type: functional, cell-based; details: HGC-27, 72 h
# MGC-803 [11] = experiment: Induction of apoptosis in human MGC-803 cells assessed as late apoptotic cells at 2.5 uM measured after 48 hrs by AnnexinV/FITC staining based flow cytometry method (reference value: 0.9%); assay type: functional
# HGC-27 [12] = experiment: Induction of apoptosis in human HGC-27 cells assessed as reduction of mitochondrial membrane potential at 9 uM measured after 24 hrs by JC-1 staining based Flowcytometry assay (reference value: 2.4%); assay type: functional; design: scale not given: the % may be the effect or the level left
# HGC-27 [13] = experiment: Induction of apoptosis in human HGC-27 cells assessed as late apoptotic cells at 9 uM measured after 24 hrs by AnnexinV/FITC staining based flow cytometry method (reference value: 2.4%); assay type: functional
# MGC-803 [14] = experiment: Induction of apoptosis in human MGC-803 cells assessed as ROS levels at 7.5 uM measured after 24 hrs by DCFH-DA staining based flow cytometry assay (reference value: 3.3%); assay type: functional
# MGC-803 [15] = experiment: Antiproliferative activity against human MGC-803 cells assessed as inhibition of cell proliferation at 0.39 to 50 uM measured upto 72 hrs by MTT assay; assay type: functional, cell-based; details: dose 0.39-50 µM, time hrs <=72
# MGC-803 [16] = experiment: Induction of apoptosis in human MGC-803 cells assessed as necrotic cells at 2.5 uM measured after 24 hrs by AnnexinV/FITC staining based flow cytometry method (reference value: 1.9%); assay type: functional
# HGC-27 [17] = experiment: Antiproliferative activity against human HGC-27 cells assessed as inhibition of cell proliferation at 0.39 to 50 uM measured upto 72 hrs by MTT assay; assay type: functional, cell-based; details: dose 0.39-50 µM, time hrs <=72
# MGC-803 [18] = experiment: Inhibition of cell migration in human MGC-803 cells at 5 uM measured after 48 hrs by wound healing assay based inverted microscopic analysis; assay type: functional
# MGC-803 [19] = experiment: Induction of apoptosis in human MGC-803 cells assessed as viable cells at 2.5 uM measured after 48 hrs by AnnexinV/FITC staining based flow cytometry method (reference value: 97.4%); assay type: functional; details: read-out: Activity
# MGC-803 [20] = experiment: Inhibition of cell migration in human MGC-803 cells at 1.25 to 5 uM measured after 24 to 48 hrs by wound healing assay based inverted microscopic analysis; assay type: functional; details: dose 1.25-5 µM, time 24-48 hrs
# MGC-803 [21] = experiment: Induction of apoptosis in human MGC-803 cells assessed as late apoptotic cells at 7.5 uM measured after 24 hrs by AnnexinV/FITC staining based flow cytometry method (reference value: 2%); assay type: functional
# MGC-803 [22] = experiment: Induction of apoptosis in human MGC-803 cells assessed as viable cells at 5 uM measured after 48 hrs by AnnexinV/FITC staining based flow cytometry method (reference value: 97.4%); assay type: functional; details: read-out: Activity
# MGC-803 [23] = experiment: Induction of apoptosis in human MGC-803 cells assessed as reduction of mitochondrial membrane potential at 2.5 uM measured after 24 hrs by JC-1 staining based Flowcytometry assay (reference value: 3.8%); assay type: functional; design: scale not given: the % may be the effect or the level left
# [24] = Cytotoxicity against human GES1 cells assessed as inhibition of cell proliferation measured after 72 hrs by MTT assay; assay type: toxicity, cell-based
# MGC-803 [25] = experiment: Cell cycle arrest in human MGC-803 cells assessed as accumulation of cells at G0/G1 phase at 5 uM measured after 24 hrs by Flowcytometry assay (reference value: 46.01%); assay type: functional
# MGC-803 [26] = experiment: Induction of apoptosis in human MGC-803 cells assessed as late apoptotic cells at 5 uM measured after 48 hrs by AnnexinV/FITC staining based flow cytometry method (reference value: 0.9%); assay type: functional
# MGC-803 [27] = experiment: Induction of apoptosis in human MGC-803 cells assessed as viable cells at 7.5 uM measured after 48 hrs by AnnexinV/FITC staining based flow cytometry method (reference value: 97.4%); assay type: functional; details: read-out: Activity
# MGC-803 [28] = experiment: Antiproliferative activity against human MGC-803 cells assessed as inhibition of cell proliferation measured after 72 hrs by MTT assay; assay type: functional, cell-based; details: MGC-803, 72 h
# HepG2 = experiment: Antiproliferative activity against human HepG2 cells assessed as inhibition of cell proliferation measured after 72 hrs by MTT assay; assay type: functional, cell-based; details: HepG2, 72 h
compound,measurement,setting,value
CCCCCc1ccc(NC(=O)C2CCN(C/C=C/c3ccccc3)CC2)cc1,Activity,HGC-27 [1],Dose-Dependent Effect
same,viability at 6 µM,HGC-27 [2],45.8%
same,Activity,MGC-803 [3],Active
same,Activity,HGC-27 [4],32.2%
same,Activity,MGC-803 [5],Active
same,Activity,MGC-803 [6],Dose-Dependent Effect
same,inhibition,[7],inactive
same,inhibition,[8],inactive
same,Activity,HGC-27 [9],11.4%
same,pIC50,HGC-27 [10],5.50
same,Activity,MGC-803 [11],43.5%
same,Activity,HGC-27 [12],58%
same,Activity,HGC-27 [13],74%
same,Activity,MGC-803 [14],22.2%
same,Activity,MGC-803 [15],Dose-Dependent Effect
same,Activity,MGC-803 [16],0.8%
same,Activity,HGC-27 [17],Dose-Dependent Effect
same,inhibition at 5 µM,MGC-803 [18],40%
same,viability at 2.5 µM,MGC-803 [19],50.6%
same,Activity,MGC-803 [20],Dose-Dependent Effect
same,Activity,MGC-803 [21],82.4%
same,viability at 5 µM,MGC-803 [22],38.4%
same,Activity,MGC-803 [23],4%
same,IC50 at 72 h,[24],8.7 µM
same,Activity,MGC-803 [25],44.87%
same,Activity,MGC-803 [26],51%
same,viability at 7.5 µM,MGC-803 [27],0.4%
same,pIC50,MGC-803 [28],5.59
same,pIC50,HepG2,5.54
